Measured values reported in publication PMC11696576, “Next generation thiazolyl ketone inhibitors of cytosolic phospholipase A2 α for targeted cancer therapy” (Nature Communications, 2025).
Several values for one entry are separate records, joined by “and”; a condition that tells them apart may be missing. Equal entries are not always repeated. Where two headings read alike, the source gives them in different places.

Test system: Jurkat E6.1 cells
Assay: cell viability, CTG assay, Jurkat E6.1
Format: cell-based, human
Settings: for viability at 0.125 µM: Jurkat E6.1, 0.125 µM; for cell viability (0 µM = 100): listed as AVX420
Excerpt: Data are the mean ± stdev of 3 biological replicates. […] Data are the mean ± stdev of 3 biological replicates.
Bjørn Tore Gjertsen (University of Bergen, Norway). […] The cell lines were not authenticated.

## CCCCCCCOc1ccc(OCC(=O)c2nc(C(=O)OC)cs2)cc1 [GK420]
Homo sapiens, Jurkat E6.1, 24 h, Jurkat E6.1, 0.007 µM, 24H, read-out: cell viability (0 µM = 100)
  viability at 0.007 µM: 102%
Homo sapiens, Jurkat E6.1, 24 h, Jurkat E6.1, 0.015 µM, 24H, read-out: cell viability (0 µM = 100)
  viability at 0.015 µM: 96%
Homo sapiens, Jurkat E6.1, 24 h, Jurkat E6.1, 0.031 µM, 24H, read-out: cell viability (0 µM = 100)
  viability at 0.031 µM: 99%
Homo sapiens, Jurkat E6.1, 24 h, Jurkat E6.1, 0.062 µM, 24H, read-out: cell viability (0 µM = 100)
  viability at 0.062 µM: 103%
Homo sapiens, Jurkat E6.1, 24 h, 24H, read-out: cell viability (0 µM = 100)
  viability at 0.125 µM: 101%
Homo sapiens, Jurkat E6.1, 24 h, Jurkat E6.1, 0.25 µM, 24H, read-out: cell viability (0 µM = 100)
  viability at 0.25 µM: 90%
Homo sapiens, Jurkat E6.1, 24 h, Jurkat E6.1, 0.5 µM, 24H, read-out: cell viability (0 µM = 100)
  viability at 0.5 µM: 51%
Homo sapiens, Jurkat E6.1, 24 h, Jurkat E6.1, 1 µM, 24H, read-out: cell viability (0 µM = 100)
  viability at 1 µM: 28%
Homo sapiens, Jurkat E6.1, 24 h, Jurkat E6.1, 2 µM, 24H, read-out: cell viability (0 µM = 100)
  viability at 2 µM: 16%
Homo sapiens, Jurkat E6.1, 48 h, Jurkat E6.1, 0.007 µM, 48H, read-out: cell viability (0 µM = 100)
  viability at 0.007 µM: 101%
Homo sapiens, Jurkat E6.1, 48 h, Jurkat E6.1, 0.015 µM, 48H, read-out: cell viability (0 µM = 100)
  viability at 0.015 µM: 99%
Homo sapiens, Jurkat E6.1, 48 h, Jurkat E6.1, 0.031 µM, 48H, read-out: cell viability (0 µM = 100)
  viability at 0.031 µM: 100%
Homo sapiens, Jurkat E6.1, 48 h, Jurkat E6.1, 0.062 µM, 48H, read-out: cell viability (0 µM = 100)
  viability at 0.062 µM: 104%
Homo sapiens, Jurkat E6.1, 48 h, 48H, read-out: cell viability (0 µM = 100)
  viability at 0.125 µM: 104%
Homo sapiens, Jurkat E6.1, 48 h, Jurkat E6.1, 0.25 µM, 48H, read-out: cell viability (0 µM = 100)
  viability at 0.25 µM: 79%
Homo sapiens, Jurkat E6.1, 48 h, Jurkat E6.1, 0.5 µM, 48H, read-out: cell viability (0 µM = 100)
  viability at 0.5 µM: 39%
Homo sapiens, Jurkat E6.1, 48 h, Jurkat E6.1, 1 µM, 48H, read-out: cell viability (0 µM = 100)
  viability at 1 µM: 16%
Homo sapiens, Jurkat E6.1, 48 h, Jurkat E6.1, 2 µM, 48H, read-out: cell viability (0 µM = 100)
  viability at 2 µM: 9%
Homo sapiens, Jurkat E6.1, 48 h, Jurkat E6.1, 4 µM, 48H, read-out: cell viability (0 µM = 100)
  viability at 4 µM: 5%
Homo sapiens, Jurkat E6.1, 72 h, Jurkat E6.1, 0.007 µM, 72H, read-out: cell viability (0 µM = 100)
  viability at 0.007 µM: 100%
Homo sapiens, Jurkat E6.1, 72 h, Jurkat E6.1, 0.015 µM, 72H, read-out: cell viability (0 µM = 100)
  viability at 0.015 µM: 97%
Homo sapiens, Jurkat E6.1, 72 h, Jurkat E6.1, 0.031 µM, 72H, read-out: cell viability (0 µM = 100)
  viability at 0.031 µM: 90%
Homo sapiens, Jurkat E6.1, 72 h, Jurkat E6.1, 0.062 µM, 72H, read-out: cell viability (0 µM = 100)
  viability at 0.062 µM: 87%
Homo sapiens, Jurkat E6.1, 72 h, 72H, read-out: cell viability (0 µM = 100)
  viability at 0.125 µM: 87%
Homo sapiens, Jurkat E6.1, 72 h, Jurkat E6.1, 0.25 µM, 72H, read-out: cell viability (0 µM = 100)
  viability at 0.25 µM: 76%
Homo sapiens, Jurkat E6.1, 72 h, Jurkat E6.1, 0.5 µM, 72H, read-out: cell viability (0 µM = 100)
  viability at 0.5 µM: 31%
Homo sapiens, Jurkat E6.1, 72 h, Jurkat E6.1, 1 µM, 72H, read-out: cell viability (0 µM = 100)
  viability at 1 µM: 10%
Homo sapiens, Jurkat E6.1, Jurkat cells, 0.5 µM, VEH, read-out: cell viability (Control = 100)
  viability at 0.5 µM: 50%
Homo sapiens, Jurkat E6.1, Jurkat cells, 1 µM, VEH, read-out: cell viability (Control = 100)
  viability at 1 µM: 34%
Jurkat E6.1, 0.007 µM, 24H
  cell viability (0 µM = 100): 98 and 97
Jurkat E6.1, 0.007 µM, 48H
  cell viability (0 µM = 100): 98 and 97
Jurkat E6.1, 0.007 µM, 72H
  cell viability (0 µM = 100): 98
Jurkat E6.1, 0.015 µM, 48H
  cell viability (0 µM = 100): 98 and 97
Jurkat E6.1, 0.031 µM, 24H
  cell viability (0 µM = 100): 95
Jurkat E6.1, 0.031 µM, 48H
  cell viability (0 µM = 100): 98
Jurkat E6.1, 0.031 µM, 72H
  cell viability (0 µM = 100): 95
Jurkat E6.1, 0.062 µM, 24H
  cell viability (0 µM = 100): 94
Jurkat E6.1, 0.062 µM, 48H
  cell viability (0 µM = 100): 93
Jurkat E6.1, 0.062 µM, 72H
  cell viability (0 µM = 100): 98
Jurkat E6.1, 0.25 µM, 72H
  cell viability (0 µM = 100): 61
Jurkat E6.1, 0.5 µM, 24H
  cell viability (0 µM = 100): 41 and 43
Jurkat E6.1, 0.5 µM, 72H
  cell viability (0 µM = 100): 30 and 21
Jurkat E6.1, 1 µM, 24H
  cell viability (0 µM = 100): 19 and 21
Jurkat E6.1, 1 µM, 48H
  cell viability (0 µM = 100): 14 and 13
Jurkat E6.1, 1 µM, 72H
  cell viability (0 µM = 100): 8
Jurkat E6.1, 2 µM, 48H
  cell viability (0 µM = 100): 7
Jurkat E6.1, 4 µM, 48H
  cell viability (0 µM = 100): 3
Jurkat E6.1, CTG
  effect on viability: strong dose-dependent effect
Jurkat cells, 0.5 µM, VEH, listed as AVX420, 0.5 µM
  cell viability (Control = 100): 46 and 55
